Data from patent US6682732B1, “Treatment of lesions” (The University of Bath, priority 1998, dated 2004).

Columns and labels:
[1] = tested on: Staphylococcus aureus 6751; experiment: Bacterial growth rate by optical density, 96 well plate (Tests 6(d), 6(e)); format: cell-based
Protocol: (§1) Bacteria were seeded into nutrient broth (NB) and grown over night at 37° C. The culture was then counted and normalised to give a final cell concentration of 1.8×10^7 cells well^−1 into the wells of a 96 well plate in fresh nutrient broth. The optical density of each well was monitored every 15 minutes as a measure of the growth rate of each bacterial species. Growth curves were generated for each species and the maximal rate of growth (logarithmic phase) was measured. Cells were treated to a range of experimental conditions in which the growth rate of cells was related to a control of untreated cells. The results were expressed as a percentage of the growth rate of the control cells.
(§2) (i) At a fixed concentration of hypoxanthine (100 μM) a range of purified XO protein concentrations were added at time 0 minutes. The optical density was followed and the growth rate calculated.
(§3) (ii) The growth rate was also measured in relation to the concentration of hypoxanthine, using 30 μg of XO with cells seeded as described above.

[2] = tested on: Lactobacillus casei 6375; experiment: as above; format: cell-based; details: highest concentration
Protocol: as §1, §2, §3

[3] = tested on: S. enteritidis; experiment: Peroxynitrite effect on cell viability, colony count (Test 6(a)); format: cell-based
Protocol: Cells cultured as described above were diluted to suitable working concentrations (10^4-10^5 Cells Ml^−1) in sterile phosphate buffered saline (PBS). ONOO^− at a range of concentrations from 100 μM to 0.01 μM was added as a bolus dose to cells and incubated at room temperature for ten minutes. Aliquots were taken from the cell cultures and plated on to nutrient agar and incubated in a warm room at 37° C. overnight. Viable cells formed colonies on the agar and were counted. The number of colonies formed was related to an untreated control and a graph of the results is shown in FIG. 1, which illustrates the effect of ONOO^− on cell viability.

[4] = tested on: Escherichia coli NCTC 86; experiment: as above; format: cell-based; details: E. coli; 100 μM to 0.01 μM; FIG. 1
Protocol: (§4) To obtain cells used in this test, the infective bacterial strain Escherichia coli NCTC 86 (E.coli) was cultured on nutrient agar at 37° until colony formation occurred, usually overnight. This stock culture was used for subsequent experiments including sub-culturing in nutrient broth and plated onto agar weekly. Experimental cultures of E.coli were set up overnight in nutrient broth from single colonies on an agar plate. Cells were harvested and counted using a standard curve of known absorbance at 470 nm against viable cell count. Peroxynitrite was generated by the method of Crow et al BIOCHEM. 34 pages 3544 to 3552 (1995). In accordance with that method, a mixture of sodium nitrite and hydrogen peroxide was reacted under acid conditions then immediately quenched by the addition of sodium hydroxide. The concentration of ONOO^− formed was measured using an absorption coefficient of 1670 M^−1 cm^−1 in a spectrophotometer at a wavelength of 303 nm. Solutions of different concentrations for use in (a) below were obtained by dilution of the product solution using PBS.
Cells cultured as described above were diluted to suitable working concentrations (10^4-10^5 Cells Ml^−1) in sterile phosphate buffered saline (PBS). […] Viable cells formed colonies on the agar and were counted. […]

[5] = tested on: E. coli; experiment: Effect of peroxynitrite scavenger on bacterial growth, growth curves by absorbance (Test 6(c)); format: cell-based
Protocol: E. coli were seeded into nutrient broth at 2.10^7 cell ml^−1 and incubated at 37° C. under atmospheric air conditions (that is, 21% oxygen saturation). Four separate test samples of volume 1 ml were prepared by addition at 1 hour of incubation as follows:
1 Peroxynitrite at concentration 100 μM.
2 Peroxynitrite at 100 μM and quercetin (peroxynitrite scavenger) at 100 μμM.
3 Xanthine oxidase (53.2 μg) and xanthine at 100 μM.
4 Xanthine oxidase (53.2 μg) and NADH at 100 μM.
Corresponding controls were also prepared, and the growth curves generated over time determined by monitoring absorbance.

[6] = tested on: Straphylococcu aureus; experiment: Incubation of Gram positive bacteria with SIN-1, growth; format: cell-based
[7] = Nitric oxide release from pure bovine xanthine oxidase with NADH and nitrite under hypoxic conditions (ozone chemiluminescence, Tests 1-3); format: biochemical
Protocol: The production of nitric oxide in the following tests and examples was analysed using an ozone chemiluminescence assay in a continuous flow apparatus (Sievers NOA 280) that allows the real time analysis of NO production. The apparatus was modified to allow a constant stream of nitrogen to flow into the reaction chamber. Chemiluminescence data were collected by a data acquisition system; the mean NO produced in parts per billion (ppb) was calculated from readings taken every second and shown as NO ppb/s. Progress curves, of molar production of NO against time, were calculated by taking into account the gas flow and successively integrating the ppb/s curves. […]
(d) Samples of NO were taken from the reaction cell by a needle that was connected to a Sievers Nitric Oxide Analyser (NOA-280 ) and the results were recorded for analysis using a computer.
(e) At time (t) 0 minutes, the NOA-280 started the measurement of NO from the reaction cell. At t=1 minute, the contents of the “substrates” bijou were injected into the reaction cell using a 1 ml syringe and the background NO was measured.
(f) At t=5 minutes, the contents of the “milk” bijou were injected into the reaction cell using a 1 ml syringe and the release of NO was monitored for a further 20 minutes. […]

[8] = tested on: S. enteritidis; experiment: Effect of xanthine oxidase derived species on cell viability at a range of oxygen concentrations (Test 6(b)); format: cell-based; details: XO, NADH, NaNO2 system
Protocol: Aliquots were taken and incubated with a reaction system consisting of bovine Xanthine oxidase (XO) (53.2 μgml^−1), nicotinamide adenine dinucleotide in reduced form (NADH) (300 μM), sodium nitrite, (NaNO2) 1 mM and oxygen at a range of concentrations. […] This reaction was followed at 37° C. for 30 min with mixing before an aliquot was taken and plated onto agar and incubated in a warm room at 37° C. Viable cells formed colonies on the agar and were counted. Viable cell counts were performed in triplicate and the results expressed as a percentage viable count in each case related to a non enzyme control of the same oxygen concentration. […] The range of oxygen tensions used covers those in which XO has previously been considered to be active, namely superoxide generation (21% O2 saturation) and nitric oxide production (0% O2 saturation).

[9] = tested on: E.coli; experiment: as above; format: cell-based, Escherichia coli; details: XO, NADH, NaNO2 system
Protocol: as §4, with “Solutions of different concentrations for use in (a) below were obtained by dilution of the product solution using PBS.” left out
E.coli were cultured as described above. […] Desired oxygen concentrations were generated by delivery of a mixture of oxygen and nitrogen in appropriate proportions and determined using a Clark type O2 electrode. […] Viable cells formed colonies on the agar and were counted. Viable cell counts were performed in triplicate and the results expressed as a percentage viable count in each case related to a non enzyme control of the same oxygen concentration. […]

Q: With `OO` [H2O2, hydrogen peroxide] as the compound, how does the “growth inhibition in the presence of H2O2” value ([1]; S. aureus, concentration ranges used) read?
A: Its value is “very limited”.

Q: Which “effect on growth rate when added alone” value [2] does the source give for `O=c1[nH]c(=O)c2c[nH]nc2[nH]1` [Oxypurinol] here?
A: The value was “no effect on growth rate”.

Q: What does the source list for `O=NOO` [Peroxynitrite]?
A: effect on viability [3]: reduce viability; effect on cell viability (viable count) [4]: profound inhibitory effect; killing (growth curves) ([5]; sample (1): peroxynitrite 100 μM added at 1 hour, 21% oxygen saturation): strong killing

Q: Which “growth on incubation with SIN-1” value [6] does the source give for `N=c1c[n+](N2CCOCC2)[n-]o1` [SIN-1, 3-morpholinosydnonimine] here?
A: Its value is “reduced growth in dependence on the amount of added SIN-1”.

Q: For `O=c1c(O)c(-c2ccc(O)c(O)c2)oc2cc(O)cc(O)c12` [quercetin], which “effect of scavenger on peroxynitrite killing” value ([5]; sample (2): peroxynitrite 100 μM and quercetin 100 μμM) is on record?
A: Its value is “clear effect in reducing killing”.

Q: Which results are given for “XOR: Bovine xanthine oxidase (XOR), Biozyme, Blaenavon, UK; 10.7 mg/ml, batch 104AX”?
A: growth inhibition by XO ([1]; hypoxanthine 100 μM, compared with Lactobacillus, FIG. 3): less marked growth inhibition; optimum pH for the production of NO from XOR [7]: ~5.5 pH; killing at oxygen concentrations of about 21% [8]: about 10%; killing at oxygen concentrations of about 21% [9]: about 5%
